For 14 molecules, Ki results are on record in patent publication US7045532B2 (Millennium Pharmaceuticals, Inc., priority 1999, dated 2006).

Like-named read-outs stand apart in the source and are kept apart here. A value given as a limit tells only on which side of the number the result lay.

The test concerns the target T1, ACE-2 (Homo sapiens, UniProt Q9BYF1).
T1 construct: a stop codon inserted after the serine immediately preceding the transmembrane domain; made in house; host or cells: CHO K1 cells (transient transfection, purified from conditioned medium)
The test is described as follows: ACE-2 Competitive Substrate Assay (ACS Assay). The format is biochemical.

Setting [1] is: Ki class, compounds tested in 5% DMSO, 12 compound concentrations, Ki=Kiapp/(1+[S]/Km), read-out: Human ACE-2 Activity.
The mark [2] stands for this setting: Table 3, very good ACE-2 inhibiting compounds, species not given, read-out: ACE-2 Activity, Ki.

T1 sequence (Q9BYF1 18-740 limits assumed): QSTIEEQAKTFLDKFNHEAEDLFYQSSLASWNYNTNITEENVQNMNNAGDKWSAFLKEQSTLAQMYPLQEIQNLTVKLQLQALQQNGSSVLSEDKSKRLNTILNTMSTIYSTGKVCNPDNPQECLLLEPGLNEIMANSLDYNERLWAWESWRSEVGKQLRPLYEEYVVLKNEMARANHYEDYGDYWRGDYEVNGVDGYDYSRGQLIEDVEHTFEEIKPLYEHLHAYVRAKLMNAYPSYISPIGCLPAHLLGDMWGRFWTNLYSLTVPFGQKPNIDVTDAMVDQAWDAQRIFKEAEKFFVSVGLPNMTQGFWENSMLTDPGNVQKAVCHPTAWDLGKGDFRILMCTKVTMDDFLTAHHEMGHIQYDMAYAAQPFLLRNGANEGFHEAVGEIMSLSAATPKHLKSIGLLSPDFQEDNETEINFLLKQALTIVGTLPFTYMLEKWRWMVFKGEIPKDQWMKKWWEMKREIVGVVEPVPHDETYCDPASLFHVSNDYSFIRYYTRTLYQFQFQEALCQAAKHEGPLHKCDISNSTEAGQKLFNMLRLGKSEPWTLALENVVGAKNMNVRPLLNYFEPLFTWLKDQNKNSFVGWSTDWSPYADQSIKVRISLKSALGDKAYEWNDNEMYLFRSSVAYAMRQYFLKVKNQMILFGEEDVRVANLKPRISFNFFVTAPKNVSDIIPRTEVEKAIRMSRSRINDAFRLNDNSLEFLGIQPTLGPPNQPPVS

As for `CC(C)C[C@H](N[C@@H](Cc1ccc(OCc2ccccc2)cc1)C(=O)O)C(=O)O` [KQ, S,S-2-[2-(4-Benzyloxy-phenyl)-1-carboxy-ethylamino-]4-methyl-pentanoic acid], the Ki under setting [1] fell in the range of 100 to 500 nM.
Consider `CC(C)C[C@H](N[C@@H](Cc1ccc(OCC2CCCCC2)cc1)C(=O)O)C(=O)O` [KR, S,S-2-[1-Carboxy-2-(4-cyclohexylmethoxy-phenyl)-ethylamino]-4-methyl pentanoic acid], for which, under setting [1], the Ki lay within 100 to 500 nM.
Turning to `CC(C)C[C@H](N[C@@H](Cc1ccc(OCc2cc(Cl)cc(Cl)c2)cc1)C(=O)O)C(=O)O` [KS, 2-[1-Carboxy-2-[4-(3,5-dichloro-benzyloxy)-phenyl]-ethylamino)-4-methyl-pentanoic acid], the Ki under setting [1] is under 100 nM and the Ki under setting [2] is under 50 nM.
As for `Cc1cc(C)cc(COc2ccc(C[C@H](N[C@@H](CC(C)C)C(=O)O)C(=O)O)cc2)c1` [KT, 2-[1-Carboxy-2-[4-(3,5-dimethyl-benzyloxy)-phenyl]-ethylamino]-4-methyl-pentanoic acid], under setting [1], the Ki lay in the range of 100 to 500 nM.
Regarding `CC(C)C[C@H](N[C@@H](Cn1ccn(Cc2ccc(Cl)c(Cl)c2)c1=O)C(=O)O)C(=O)O` [KU, (S,S) 2-{1-Carboxy-2-[3-(3,4-dichloro-benzyl)-2-oxo-2,3-dihydro-imidazol-1-yl]ethylamino}-4-methyl-pentanoic acid], the Ki by setting is: under setting [1], under 100 nM; under setting [2], 50 to 100 nM.
On to `CC(C)C[C@H](N[C@@H](CC(=O)Nc1nc2ccccc2s1)C(=O)O)C(=O)O` [KV, 2-[2-(Benzothiazol-2-ylcarbamoyl)-1-carboxy-ethylamino]-4-methyl-pentanoic acid], for which the Ki is, setting by setting: under setting [1], under 100 nM; under setting [2], under 50 nM.
As for `CC(C)CC(NC(CC(=O)N1CCN(C(c2ccccc2)c2ccc(Cl)cc2)CC1)C(=O)O)C(=O)O` (stereo not drawn) [KW, 2-(1-Carboxy-3-[4-[(4-chloro-phenyl)-phenyl-methyl]-piperazin-1-yl]-3-oxo-propylamino)-4-methyl-pentanoic acid], the Ki under setting [1] is over 500 nM.
`COC(=O)[C@H](Cc1cncn1Cc1cc(Cl)cc(Cl)c1)N[C@@H](CC(C)C)C(=O)O` [KX, (S,S) 2-{2-[3-(3,5-Dichloro-benzyl)-3H-imidazol-4-yl]-1-methoxycarbonyl-ethylamino}-4-methyl-pentanoic acid]: the Ki is under 100 nM under setting [1] and under 50 nM under setting [2].
As for `COC(=O)[C@H](Cc1cncn1Cc1cc(Cl)cc(Cl)c1)N[C@H](CC(C)C)C(=O)O` [KY, 2-[2-[3-(3,5-Dichloro-benzyl)-3H-imidazol-4-yl]-1-methoxycarbonyl-ethylamino]-4-methyl-pentanoic acid], the Ki under setting [1] fell in the range of 100 to 500 nM.
Consider `CC1(C)SC(C(=O)O)NC1C(=O)O` (stereo not drawn) [L, 5,5-Dimethyl-thiazolidine-2,4-dicarboxylic acid], for which the Ki (Ki class, compounds tested in 5% DMSO, 12 concentrations, read-out: Human ACE-2 Activity) is over 500 nM.
Turning to `COC(=O)[C@H](Cc1cncn1Cc1cc(Cl)cc(Cl)c1)N[C@H](CC(C)C)C(=O)OCc1ccccc1` [LA, 2-[2-[3-(3,5-Dichloro-benzyl)-3H-imidazol-4-yl]-1-methoxycarbonyl-ethylamino]-4-methyl-pentanoic acidbenzyl ester], the Ki under setting [1] is over 500 nM.
Consider `CC(C)C[C@H](N[C@@H](Cc1cncn1Cc1cc(Cl)cc(Cl)c1)C(=O)OCc1ccccc1)C(=O)O` [LB, (S,S) 2-{1-Benzyloxycarbonyl-2-[3-(3,5-dichloro-benzyl)-3H-imidazol-4-yl]-ethylamino}-4-methyl-pentanoic acid], for which the Ki under setting [1] was over 500 nM.
For `CCCCOC(=O)[C@H](Cc1cncn1Cc1cc(Cl)cc(Cl)c1)N[C@@H](CC(C)C)C(=O)O` [LD, (S,S) 2-{1-Butoxycarbonyl-2-[3-(3,5-dichloro-benzyl)-3H-imidazol-4-yl]-ethylamino}-4-methyl-pentanoic acid], the Ki under setting [1] is under 100 nM.
On the same count and under the same terms, with `CCCCOC(=O)[C@H](Cc1cncn1Cc1cc(Cl)cc(Cl)c1)N[C@H](CC(C)C)C(=O)O` [LE, 2-[1-Butoxycarbonyl-2-[3-(3,5-dichloro-benzyl)-3H-imidazol-4-yl]-ethylamino]4-methyl-pentanoic acid] the figure was over 500 nM.
